Data as given in US20040009156A1, “Antisense therapy using oligonucleotides that target human kinesin genes for treatment of cancer” (priority 2001, published 2004).

Assays:
SW620 cells [1] = assay: LDH cytotoxicity assay, alone and with cisplatinum; format: cell-based, human; conditions: FIG. 4
Description: LDH cytotoxicity assays were performed to determine the effect of antisense oligonucleotides on SW620 cell death alone and in the presence of the chemotherapeutic drug cisplatinum. […] Also, the same LDH cytotoxicity assays were performed on MRC9 cells transfected with the same oligonucleotides in the presence or absence of cisplatinum.

[2] = test system: human colon cancer cell line SW620; assay: Soft agar growth (anchorage independent growth) of transfected SW620 cells; format: cell-based; conditions: SW620 cells transfected with antisense oligonucleotide; versus reverse control; FIG. 1
From the text: The antisense oligonucleotides (SEQ IDNO:17), (SEQ IDNO:4), and (SEQ ID NO:1) were each transfected into the human colon cancer cell line SW620. Additionally, the same colon cancer cell line was transfected with the corresponding reverse control sequences (respectively SEQ ID NO:35, SEQ ID NO:22 and SEQ ID NO:19). […] These assay results contained in FIG. 1 indicate that the synthesized kinesin antisense oligonucleotides inhibit tumorigenesis.

SW620 cells [3] = assay: Cell cycle profile by FACS analysis of propidium iodide stained cells; format: cell-based, human; conditions: SW620 cells transiently transfected; FIG. 2
Description: SW620 cells were transiently transfected with antisense oligonucleotides according to the invention and the effect on cell cycle profile evaluated by FACS analysis of propidium iodide stained cells. It was observed that cell tested antisense oligonucleotides arrested cells in G2/M phase to different degrees. […] Also, the effect of the same antisense oligonucleotides on the cell cycle of normal human filonblasts was tested.

Sequence | cytotoxicity (LDH) in combination with cisplatinum (SW620 cells [1]; in combination with the chemotherapeutic drug cisplatinum) | capability of the cells to grow in soft agar (anchorage independent growth) [2] | cell death (LDH cytotoxicity), oligonucleotide alone (SW620 cells [1]) | cell cycle arrest in G2/M phase (SW620 cells [3])
TGGATAAATTGCCTGGAATCAGCGC (chemistry not given here) [SEQ ID NO:17] | increase in cytotoxicity | significantly inhibited | – | –
CCTCCGCCATCCTATCAGGCTGAA (chemistry not given here) [SEQ ID NO:1] | – | significantly inhibited | did not induce cytotoxicity | next best inhibiting effect
GTTGATCTGGGCTCGCAGAGGTAAT (chemistry not given here) [SEQ ID NO:4] | – | significantly inhibited | induced death | –
